Results from patent publication US12459918B2, “Isoquinolinone derivatives serving as rock protein kinase inhibitors and use thereof” (GUANGZHOU OCUSUN OPHTHALMIC BIOTECHNOLOGY CO., LTD., priority 2019, dated 2025).

Tests used:
[1] = test system: New Zealand rabbits with normal intraocular pressure; experiment: Repeated eye-drop administration for 14 days, experiment operation 2: Day 1 intraocular pressure; format: in vivo; details: for Mean intraocular pressure of both eyes: saline in left, Day 1
Text: (§1) Experimental example 4. Experiment on reduction of intraocular pressure and ocular toxicity of New Zealand rabbits with normal intraocular pressure by repeated eye-drop administration for 14 days
(§2) The intraocular pressure reduction action and the potential ocular toxicity of compound 63 were explored by 14 days of repeated eye-drop administration in rabbits with normal intraocular pressure.
(§3) Male New Zealand rabbits, aged 97-127 days, weighted 2.6-3.5 kg, purchased from PizhouDongfang Breeding Co. Ltd.
42 male New Zealand rabbits were randomly divided into 7 groups, with 6 rabbits per group. Animals were randomly divided according to body weight Animals in 1-7 groups were eye-dropped with normal saline in the left eye and with solvent/control sample/test sample in the right eye respectively by a volume of 50 μL/eye, once per day for 14 consecutive days, and the day of administration was recorded as Day 1. The intraocular pressure of the animals was measured before Day 1 administration and in 1, 2, 4, 6, 8 and 10 hours after Day 1 administration, respectively (Table 8).

[2] = test system: New Zealand rabbits with normal intraocular pressure; experiment: Reduction of intraocular pressure by repeated eye-drop administration for 14 days, experiment operation 1; format: in vivo; details: for Change of intraocular pressure: negative control minus group
Text: as §1, §2, §3
The male New Zealand rabbits were randomly divided into 7 groups, with 6 rabbits per group. Animals were randomly divided according to body weight Animals in 1-7 groups were eye-dropped with solvent/control sample/test sample in both eyes, the volume of the administration was all 50 μL/eye, once per day for 14 consecutive days, and the day of the administration was recorded as Day 1. On Day 1, intraocular pressure of the animals was measured before the administration and in 1, 2, 4, 6, 8 and 10 hours after the administration, respectively; on Days 2-14, intraocular pressure of the animals was measured in 1 hour after daily administration for the group administered with K-115, and intraocular pressure of the animal was measured in 4 hours after daily administration for the other groups.

[3] = 0.5 mg/mL once per day, Day 2, 4 hours after daily administration
[4] = 0.5 mg/mL once per day, Day 3, 4 hours after daily administration
[5] = 0.5 mg/mL once per day, Day 4, 4 hours after daily administration
[6] = 0.5 mg/mL once per day, Day 5, 4 hours after daily administration
[7] = 0.5 mg/mL once per day, Day 6, 4 hours after daily administration
[8] = 0.5 mg/mL once per day, Day 7, 4 hours after daily administration
[9] = 1.0 mg/mL once per day, Day 2, 4 hours after daily administration
[10] = 1.0 mg/mL once per day, Day 3, 4 hours after daily administration
[11] = 1.0 mg/mL once per day, Day 4, 4 hours after daily administration
[12] = 1.0 mg/mL once per day, Day 5, 4 hours after daily administration
[13] = 1.0 mg/mL once per day, Day 6, 4 hours after daily administration
[14] = 1.0 mg/mL once per day, Day 7, 4 hours after daily administration

## Cc1ccc(C(=O)OCn2cc(C)c3c(S(=O)(=O)N4CC[C@H](N)C4)cccc3c2=O)c(C)c1 [Compound 63]
[1]; 0.25 mg/mL in right eye, 1 hour after administration
  Mean intraocular pressure of both eyes: 6.22 mmHg
[1]; 0.25 mg/mL in right eye, 2 hours after administration
  Mean intraocular pressure of both eyes: 6.17 mmHg
[1]; 0.25 mg/mL in right eye, 4 hours after administration
  Mean intraocular pressure of both eyes: 6.67 mmHg
[1]; 0.25 mg/mL in right eye, 6 hours after administration
  Mean intraocular pressure of both eyes: 8.06 mmHg
[1]; 0.25 mg/mL in right eye, 8 hours after administration
  Mean intraocular pressure of both eyes: 9.72 mmHg
[1]; 0.25 mg/mL in right eye, 10 hours after administration
  Mean intraocular pressure of both eyes: 10.95 mmHg
[1]; 0.25 mg/mL in right eye, before administration
  Mean intraocular pressure of both eyes: 9.84 mmHg
[1]; 0.5 mg/mL in right eye, 1 hour after administration
  Mean intraocular pressure of both eyes: 5.39 mmHg
[1]; 0.5 mg/mL in right eye, 2 hours after administration
  Mean intraocular pressure of both eyes: 5.50 mmHg
[1]; 0.5 mg/mL in right eye, 4 hours after administration
  Mean intraocular pressure of both eyes: 6.95 mmHg
[1]; 0.5 mg/mL in right eye, 6 hours after administration
  Mean intraocular pressure of both eyes: 8.94 mmHg
[1]; 0.5 mg/mL in right eye, 8 hours after administration
  Mean intraocular pressure of both eyes: 9.89 mmHg
[1]; 0.5 mg/mL in right eye, 10 hours after administration
  Mean intraocular pressure of both eyes: 11.56 mmHg
[1]; 0.5 mg/mL in right eye, before administration
  Mean intraocular pressure of both eyes: 9.22 mmHg
[1]; 1.0 mg/mL in right eye, 1 hour after administration
  Mean intraocular pressure of both eyes: 5.56 mmHg
[1]; 1.0 mg/mL in right eye, 2 hours after administration
  Mean intraocular pressure of both eyes: 5.39 mmHg
[1]; 1.0 mg/mL in right eye, 4 hours after administration
  Mean intraocular pressure of both eyes: 6.67 mmHg
[1]; 1.0 mg/mL in right eye, 6 hours after administration
  Mean intraocular pressure of both eyes: 7.33 mmHg
[1]; 1.0 mg/mL in right eye, 8 hours after administration
  Mean intraocular pressure of both eyes: 10.50 mmHg
[1]; 1.0 mg/mL in right eye, 10 hours after administration
  Mean intraocular pressure of both eyes: 10.89 mmHg
[1]; 1.0 mg/mL in right eye, before administration
  Mean intraocular pressure of both eyes: 9.17 mmHg
[1]; 2.0 mg/mL in right eye, 1 hour after administration
  Mean intraocular pressure of both eyes: 8.11 mmHg
[1]; 2.0 mg/mL in right eye, 2 hours after administration
  Mean intraocular pressure of both eyes: 5.84 mmHg
[1]; 2.0 mg/mL in right eye, 4 hours after administration
  Mean intraocular pressure of both eyes: 6.06 mmHg
[1]; 2.0 mg/mL in right eye, 6 hours after administration
  Mean intraocular pressure of both eyes: 7.11 mmHg
[1]; 2.0 mg/mL in right eye, 8 hours after administration
  Mean intraocular pressure of both eyes: 9.00 mmHg
[1]; 2.0 mg/mL in right eye, 10 hours after administration
  Mean intraocular pressure of both eyes: 10.05 mmHg
[1]; 2.0 mg/mL in right eye, before administration
  Mean intraocular pressure of both eyes: 9.72 mmHg
[1]; 4 mg/mL in right eye, 1 hour after administration
  Mean intraocular pressure of both eyes: 6.61 mmHg
[1]; 4 mg/mL in right eye, 2 hours after administration
  Mean intraocular pressure of both eyes: 5.84 mmHg
[1]; 4 mg/mL in right eye, 4 hours after administration
  Mean intraocular pressure of both eyes: 5.72 mmHg
[1]; 4 mg/mL in right eye, 6 hours after administration
  Mean intraocular pressure of both eyes: 6.61 mmHg
[1]; 4 mg/mL in right eye, 8 hours after administration
  Mean intraocular pressure of both eyes: 8.39 mmHg
[1]; 4 mg/mL in right eye, 10 hours after administration
  Mean intraocular pressure of both eyes: 10.67 mmHg
[1]; 4 mg/mL in right eye, before administration
  Mean intraocular pressure of both eyes: 10.00 mmHg
[1]; all test doses (0.25-4.0 mg/mL), compared with K-115
  Efficacy of a single dose (highest hypotensive effect and action duration): superior efficacy
[2]; 0.5 mg/mL both eyes, Day 1, 1 hour after administration
  Mean intraocular pressure of both eyes: 8.83 mmHg
[2]; 0.5 mg/mL both eyes, Day 1, 2 hours after administration
  Mean intraocular pressure of both eyes: 7.56 mmHg
[2]; 0.5 mg/mL both eyes, Day 1, 4 hours after administration
  Mean intraocular pressure of both eyes: 7.11 mmHg
[2]; 0.5 mg/mL both eyes, Day 1, 6 hours after administration
  Mean intraocular pressure of both eyes: 9.61 mmHg
[2]; 0.5 mg/mL both eyes, Day 1, 8 hours after administration
  Mean intraocular pressure of both eyes: 9.06 mmHg
[2]; 0.5 mg/mL both eyes, Day 1, 10 hours after administration
  Mean intraocular pressure of both eyes: 9.97 mmHg
[2]; 0.5 mg/mL both eyes, Day 1, before administration
  Mean intraocular pressure of both eyes: 10.11 mmHg
[2]; [3]
  Mean intraocular pressure of both eyes: 7.94 mmHg
  Change of intraocular pressure: 3.14 mmHg
[2]; [4]
  Mean intraocular pressure of both eyes: 7.31 mmHg
  Change of intraocular pressure: 3.08 mmHg
[2]; [5]
  Mean intraocular pressure of both eyes: 7.78 mmHg
  Change of intraocular pressure: 2.83 mmHg
[2]; [6]
  Mean intraocular pressure of both eyes: 7.19 mmHg
  Change of intraocular pressure: 3.78 mmHg
[2]; [7]
  Mean intraocular pressure of both eyes: 6.61 mmHg
  Change of intraocular pressure: 2.7 mmHg
[2]; [8]
  Mean intraocular pressure of both eyes: 6.00 mmHg
  Change of intraocular pressure: 4.06 mmHg
[2]; 0.5 mg/mL once per day, Day 8, 4 hours after daily administration
  Change of intraocular pressure: 4.2 mmHg
[2]; 0.5 mg/mL once per day, Day 9, 4 hours after daily administration
  Change of intraocular pressure: 3.25 mmHg
[2]; 0.5 mg/mL once per day, Day 10, 4 hours after daily administration
  Change of intraocular pressure: 3 mmHg
[2]; 0.5 mg/mL once per day, Day 11, 4 hours after daily administration
  Change of intraocular pressure: 3.25 mmHg
[2]; 0.5 mg/mL once per day, Day 12, 4 hours after daily administration
  Change of intraocular pressure: 3.28 mmHg
[2]; 0.5 mg/mL once per day, Day 13, 4 hours after daily administration
  Change of intraocular pressure: 3.31 mmHg
[2]; 0.5 mg/mL once per day, Day 14, 4 hours after daily administration
  Change of intraocular pressure: 3.72 mmHg
[2]; 0.5 mg/mL, Day 1, 1 hour after administration
  Change of intraocular pressure: 1.48 mmHg
[2]; 0.5 mg/mL, Day 1, 2 hours after administration
  Change of intraocular pressure: 3.41 mmHg
[2]; 0.5 mg/mL, Day 1, 4 hours after administration
  Change of intraocular pressure: 4.2 mmHg
[2]; 0.5 mg/mL, Day 1, 6 hours after administration
  Change of intraocular pressure: 2.33 mmHg
[2]; 0.5 mg/mL, Day 1, 8 hours after administration
  Change of intraocular pressure: 3.91 mmHg
[2]; 0.5 mg/mL, Day 1, 10 hours after administration
  Change of intraocular pressure: 4.45 mmHg
[2]; 0.5 mg/mL, Day 1, before administration
  Change of intraocular pressure: −0.22 mmHg
[2]; 1.0 mg/mL both eyes, Day 1, 1 hour after administration
  Mean intraocular pressure of both eyes: 7.08 mmHg
[2]; 1.0 mg/mL both eyes, Day 1, 2 hours after administration
  Mean intraocular pressure of both eyes: 6.67 mmHg
[2]; 1.0 mg/mL both eyes, Day 1, 4 hours after administration
  Mean intraocular pressure of both eyes: 6.44 mmHg
[2]; 1.0 mg/mL both eyes, Day 1, 6 hours after administration
  Mean intraocular pressure of both eyes: 8.00 mmHg
[2]; 1.0 mg/mL both eyes, Day 1, 8 hours after administration
  Mean intraocular pressure of both eyes: 9.22 mmHg
[2]; 1.0 mg/mL both eyes, Day 1, 10 hours after administration
  Mean intraocular pressure of both eyes: 10.56 mmHg
[2]; 1.0 mg/mL both eyes, Day 1, before administration
  Mean intraocular pressure of both eyes: 9.94 mmHg
[2]; [9]
  Mean intraocular pressure of both eyes: 7.64 mmHg
  Change of intraocular pressure: 3.44 mmHg
[2]; [10]
  Mean intraocular pressure of both eyes: 7.50 mmHg
  Change of intraocular pressure: 2.89 mmHg
[2]; [11]
  Mean intraocular pressure of both eyes: 7.33 mmHg
  Change of intraocular pressure: 3.28 mmHg
[2]; [12]
  Mean intraocular pressure of both eyes: 7.44 mmHg
  Change of intraocular pressure: 3.53 mmHg
[2]; [13]
  Mean intraocular pressure of both eyes: 6.92 mmHg
  Change of intraocular pressure: 2.39 mmHg
[2]; [14]
  Mean intraocular pressure of both eyes: 7.00 mmHg
  Change of intraocular pressure: 3.06 mmHg
[2]; 1.0 mg/mL once per day, Day 8, 4 hours after daily administration
  Change of intraocular pressure: 4.03 mmHg
[2]; 1.0 mg/mL once per day, Day 9, 4 hours after daily administration
  Change of intraocular pressure: 2.5 mmHg
[2]; 1.0 mg/mL once per day, Day 10, 4 hours after daily administration
  Change of intraocular pressure: 2.44 mmHg
[2]; 1.0 mg/mL once per day, Day 11, 4 hours after daily administration
  Change of intraocular pressure: 2.19 mmHg
[2]; 1.0 mg/mL once per day, Day 12, 4 hours after daily administration
  Change of intraocular pressure: 2.64 mmHg
[2]; 1.0 mg/mL once per day, Day 13, 4 hours after daily administration
  Change of intraocular pressure: 3.33 mmHg
[2]; 1.0 mg/mL once per day, Day 14, 4 hours after daily administration
  Change of intraocular pressure: 3.53 mmHg
[2]; 1.0 mg/mL, Day 1, 1 hour after administration
  Change of intraocular pressure: 3.23 mmHg
[2]; 1.0 mg/mL, Day 1, 2 hours after administration
  Change of intraocular pressure: 4.3 mmHg
[2]; 1.0 mg/mL, Day 1, 4 hours after administration
  Change of intraocular pressure: 4.87 mmHg
[2]; 1.0 mg/mL, Day 1, 6 hours after administration
  Change of intraocular pressure: 3.94 mmHg
[2]; 1.0 mg/mL, Day 1, 8 hours after administration
  Change of intraocular pressure: 3.75 mmHg
[2]; 1.0 mg/mL, Day 1, 10 hours after administration
  Change of intraocular pressure: 3.86 mmHg
